In publication PMC11221653, “Isolation and characterization of plant-derived exosome-like nanoparticles from Carica papaya L. fruit and their potential as anti-inflammatory agent” (PLOS ONE, 2024):

Columns and labels:
[1] = test system: NO production in LPS-induced RAW 264.7 cells; test: Nitric oxide assay (Griess reagent, nitrite); format: cell-based; conditions: PDENs 5, 10, 20 μg/mL or dexamethasone 1 μg/ml for 24 h, then LPS 50 ng/mL for 6 h
Description: RAW 264.7 cells were cultured in 96-well plates, with a density of 1 × 10^4 cells per well and incubated for 24 hours. Following this, they were exposed to various concentrations of PDENs (0, 5, 10, and 20 μg/ml) and dexamethasone (1 μg/ml) (Sigma-Aldrich, USA) for 24 hours. Thereafter, the cells were treated with LPS (50 ng/mL) (Sigma-Aldrich, USA) for an additional 6 hours. To measure the nitric oxide in the culture media, we utilized the Protocol from Griess Reagent Kit for Nitrite Determination (G-7921) (Thermo Fisher Scientific, USA). Briefly, 50 microliters of cell culture medium from each treatment were mixed with Griess reagent (1:1) and incubated for 15 minutes in the dark. The samples were measured at a wavelength of 540 nm using a microplate reader Bio-Rad iMark.

[2] = parameters: method as in PMID 35494787; conditions: concentration 17.5 μM; ref [87]; cited from earlier work

Q: For `C[C@@H]1C[C@H]2[C@@H]3CCC4=CC(=O)C=C[C@]4(C)[C@@]3(F)[C@@H](O)C[C@]2(C)[C@@]1(O)C(=O)CO` [dexamethasone], which “NO production versus LPS-induced cells” value [1] is on record?
A: The value was “significantly reduce NO production”.

Q: For `CC1=C(O)C(=O)C(O)CO1` (stereo not drawn) [DDMP, 2,3-dihydro-3,5-dihydroxy-6-methyl-4H-pyran-4-one], which radical scavenging activity [2] is on record?
A: Its radical scavenging activity is 81.1%.

Q: Which radical scavenging activity [2] does the source give for `Cc1cc(C(C)(C)C)c(O)c(C(C)(C)C)c1` [butylated hydroxytoluene] here?
A: Its radical scavenging activity is 58.4%.
